Test results taken from the NIST ThermoML archive (doi:10.1021/acs.jced.6b00972).
Numbers after ± are expanded uncertainties.

What was measured:
[1] = Crystal; DTA
[2] = Molar enthalpy of transition or fusion; conditions: Crystal; DSC

For `CCOc1cc(C=O)ccc1O` [3-ethoxy-4-hydroxybenzaldehyde], the Normal melting temperature [1] was 78 ± 1.1 °C and the “Molar enthalpy of transition or fusion” value [2] was 23.6 ± 5.2 kJ/mol.
